Results: PMC11003488 (Journal of Enzyme Inhibition and Medicinal Chemistry, 2023)

Experiments:
Assay type in all cases: cell-based
CCRF-CEM = experiment: NCI-60 SRB growth inhibition, one-dose and five-dose; conditions: Homo sapiens
HL-60(TB) = experiment: cells; conditions: Homo sapiens
K-562 = experiment: NCI-60 SRB growth inhibition, one-dose and five-dose; conditions: Homo sapiens
MOLT-4 = experiment: as above; conditions: Homo sapiens
RPMI-8226 = experiment: as above; conditions: Homo sapiens
SR = experiment: as above; conditions: Homo sapiens
EKVX = experiment: as above; conditions: Homo sapiens
NCI-H226 = experiment: as above; conditions: Homo sapiens
NCI-H23 = experiment: as above; conditions: Homo sapiens
NCI-H322M = experiment: as above; conditions: Homo sapiens
NCI-H522 = experiment: as above; conditions: Homo sapiens
COLO 205 = experiment: as above; conditions: Homo sapiens
HCC-2998 = experiment: as above; conditions: Homo sapiens
HCT-15 = experiment: as above; conditions: Homo sapiens
HT29 = experiment: as above; conditions: Homo sapiens
KM12 = experiment: as above; conditions: Homo sapiens
SF-268 = experiment: as above; conditions: Homo sapiens
SNB-19 = experiment: as above; conditions: Homo sapiens
SNB-75 = experiment: as above; conditions: Homo sapiens
U251 = experiment: as above; conditions: Homo sapiens
LOX IMVI = experiment: as above; conditions: Homo sapiens
MALME-3M = experiment: as above; conditions: Homo sapiens
M14 = experiment: as above; conditions: Homo sapiens
MDA-MB-435 = experiment: as above; conditions: Homo sapiens
SK-MEL-2 = experiment: as above; conditions: Homo sapiens, SK-MEL-2, read-out: percent growth inhibition
SK-MEL-28 = experiment: as above; conditions: Homo sapiens
UACC-257 = experiment: as above; conditions: Homo sapiens
IGROV1 = experiment: as above; conditions: Homo sapiens
OVCAR-3 = experiment: as above; conditions: Homo sapiens
OVCAR-4 = experiment: as above; conditions: Homo sapiens
OVCAR-8 = experiment: as above; conditions: Homo sapiens, OVCAR-8, read-out: percent growth inhibition
NCI/ADR-RES = experiment: as above; conditions: Homo sapiens
786-0 = experiment: as above; conditions: Homo sapiens
A498 = experiment: as above; conditions: Homo sapiens
ACHN = experiment: as above; conditions: Homo sapiens
CAKI-1 = experiment: as above; conditions: Homo sapiens
RXF 393 = experiment: as above; conditions: Homo sapiens
SN12C = experiment: as above; conditions: Homo sapiens
PC-3 = experiment: as above; conditions: Homo sapiens
MCF7 = experiment: as above; conditions: Homo sapiens
HS 578 T = experiment: as above; conditions: Homo sapiens
T-47D = experiment: as above; conditions: Homo sapiens, T47D
MDA-MB-468 = experiment: as above; conditions: Homo sapiens
[1] = read-out: percent growth inhibition

## O=C(/C=C/c1cccnc1)c1cccc(NCc2ccc(CO)cc2)c1 [Compound 5e, (E)-1–(3-((4-(hydroxymethyl)benzyl)amino)phenyl)-3-(pyridin-3-yl)prop-2-en-1-one]
CCRF-CEM
  GI50: 5.17 µM
CCRF-CEM; [1]
  inhibition at 10 µM: 131%
HL-60(TB); HL-60
  GI50: 4.23 µM
HL-60(TB); HL-60, read-out: percent growth inhibition
  inhibition at 10 µM: 118%
K-562; K562
  GI50: 2.75 µM
K-562; K562, read-out: percent growth inhibition
  inhibition at 10 µM: 99.1%
MOLT-4; MOLT-4
  GI50: 2.69 µM
MOLT-4; MOLT-4, read-out: percent growth inhibition
  inhibition at 10 µM: 120%
RPMI-8226; RPMI-8226
  GI50: 2.27 µM
RPMI-8226; RPMI-8226, read-out: percent growth inhibition
  inhibition at 10 µM: 133%
SR
  GI50: 2.62 µM
EKVX
  GI50: 13.7 µM
EKVX; [1]
  inhibition at 10 µM: 56.8%
NCI-H226; NCI-H226
  GI50: 11.2 µM
NCI-H226; NCI-H226, read-out: percent growth inhibition
  inhibition at 10 µM: 123%
NCI-H23; NCI-H23
  GI50: 12.9 µM
NCI-H23; NCI-H23, read-out: percent growth inhibition
  inhibition at 10 µM: 79.3%
NCI-H322M
  GI50: 15 µM
NCI-H322M; [1]
  inhibition at 10 µM: 18.6%
NCI-H522; NCI-H522
  GI50: 11.4 µM
NCI-H522; NCI-H522, read-out: percent growth inhibition
  inhibition at 10 µM: 57.6%
COLO 205; COLO 205
  GI50: 16.3 µM
COLO 205; COLO 205, read-out: percent growth inhibition
  inhibition at 10 µM: 37.3%
HCC-2998; HCC 2998
  GI50: 5.6 µM
HCC-2998; HCC 2998, read-out: percent growth inhibition
  inhibition at 10 µM: 190%
HCT-15; HCT-15
  GI50: 3.01 µM
HCT-15; HCT-15, read-out: percent growth inhibition
  inhibition at 10 µM: 132%
HT29; HT-29
  GI50: 8.21 µM
HT29; HT-29, read-out: percent growth inhibition
  inhibition at 10 µM: 173%
KM12; KM12
  GI50: 7.91 µM
KM12; KM12, read-out: percent growth inhibition
  inhibition at 10 µM: 189%
SF-268; SF-268
  GI50: 16.9 µM
SF-268; SF-268, read-out: percent growth inhibition
  inhibition at 10 µM: 64.8%
SNB-19; SNB-19
  GI50: 12.4 µM
SNB-19; SNB-19, read-out: percent growth inhibition
  inhibition at 10 µM: 74.9%
SNB-75; SNB-75
  GI50: 9.69 µM
SNB-75; SNB-75, read-out: percent growth inhibition
  inhibition at 10 µM: 14.7%
U251; U-251
  GI50: 4.94 µM
U251; U-251, read-out: percent growth inhibition
  inhibition at 10 µM: 146%
LOX IMVI
  GI50: 1.76 µM
LOX IMVI; [1]
  inhibition at 10 µM: 197%
MALME-3M
  GI50: 13.3 µM
MALME-3M; [1]
  inhibition at 10 µM: 41.4%
M14; M14
  GI50: 12.4 µM
M14; M14, read-out: percent growth inhibition
  inhibition at 10 µM: 91.9%
MDA-MB-435; MDA-MB-435
  GI50: 5.26 µM
MDA-MB-435; MDA-MB-435, read-out: percent growth inhibition
  inhibition at 10 µM: 58.7%
SK-MEL-2
  inhibition at 10 µM: 17.7%
SK-MEL-28; SK-MEL-28
  GI50: 13.6 µM
SK-MEL-28; SK-MEL-28, read-out: percent growth inhibition
  inhibition at 10 µM: 121%
UACC-257; UACC-257
  GI50: 14.7 µM
UACC-257; UACC-257, read-out: percent growth inhibition
  inhibition at 10 µM: 61.4%
IGROV1; IGROV-1
  GI50: 3.58 µM
IGROV1; IGROV-1, read-out: percent growth inhibition
  inhibition at 10 µM: 86.3%
OVCAR-3; OVCAR-3
  GI50: 10.3 µM
OVCAR-3; OVCAR-3, read-out: percent growth inhibition
  inhibition at 10 µM: 131%
OVCAR-4; OVCAR-4
  GI50: 11.6 µM
OVCAR-4; OVCAR-4, read-out: percent growth inhibition
  inhibition at 10 µM: 48.8%
OVCAR-8
  inhibition at 10 µM: 97.2%
NCI/ADR-RES
  GI50: 11.3 µM
NCI/ADR-RES; [1]
  inhibition at 10 µM: 104%
786-0; 786-0
  GI50: 15.2 µM
786-0; 786-0, read-out: percent growth inhibition
  inhibition at 10 µM: 108%
A498; A498
  GI50: 14.8 µM
A498; A498, read-out: percent growth inhibition
  inhibition at 10 µM: 15.3%
ACHN
  GI50: 8.07 µM
ACHN; [1]
  inhibition at 10 µM: 81.6%
CAKI-1; CAKI-1
  GI50: 13.5 µM
CAKI-1; CAKI-1, read-out: percent growth inhibition
  inhibition at 10 µM: 42.3%
RXF 393; RXF 393
  GI50: 13.7 µM
RXF 393; RXF 393, read-out: percent growth inhibition
  inhibition at 10 µM: 121%
SN12C
  GI50: 12.3 µM
SN12C; [1]
  inhibition at 10 µM: 94.4%
PC-3; PC-3
  GI50: 11.6 µM
PC-3; PC-3, read-out: percent growth inhibition
  inhibition at 10 µM: 62.6%
MCF7; MCF7
  GI50: 2.15 µM
MCF7; MCF7, read-out: percent growth inhibition
  inhibition at 10 µM: 163%
HS 578 T
  GI50: 18 µM
HS 578 T; [1]
  inhibition at 10 µM: 33.5%
T-47D
  GI50: 9.17 µM
T-47D; [1]
  inhibition at 10 µM: 59.1%
MDA-MB-468; MDA-MB-468
  GI50: 4 µM
MDA-MB-468; MDA-MB-468, read-out: percent growth inhibition
  inhibition at 10 µM: 153%
